# Measurements reported in patent publication US9586921B2, “Burdock fruit extract containing arctigenin at high content and process for producing same” (Kracie Pharma, Ltd., priority 2009, dated 2017).
# Assays:
# CAPAN-1 Xenografts = test: Evaluation of the anticancer activity in the model animal of tumor (CAPAN-1 Xenografts); format: in vivo, nude mouse; details: CAPAN-1 xenograft, 50 μg per mouse by mouth five times a week, one month after beginning of dosage, FIG. 5
# Experimental: (§1) [Test 3] (the Evaluation of the Anticancer Activity in the Model Animal of Tumor) (Method for Test) The subcutaneous dorsales of nude mouse (BALB-cAJ nu/nu; Nippon Kurea) which is the donor was inoculated the human pancreas cancer cell line, CAPAN-1 or PSN-1, and the obtained tumor mass of the donor mouse was transplanted into the subcutaneous dorsales of the recipient mouse to generate the model animal of tumor. […] The anticancer activity was evaluated by measuring the size of the tumor mass of subcutaneous dorsales sequentially.
# PSN-1 Xenografts = test: Evaluation of the anticancer activity in the model animal of tumor (PSN-1 Xenografts); format: in vivo, nude mouse; details: PSN-1 xenograft, 50 μg per mouse by mouth five times a week, one month after beginning of dosage, FIG. 6
# Experimental: as §1
# [1] = system: pancreas cancer cell line PANC-1; details: PANC-1, undernutrition condition; non-patent document 1; cited from earlier work
# CAPAN-1 = test: Cytotoxic evaluation using the cultured cell (WST-8 viability), CAPAN-1; format: cell-based, human; details: CAPAN-1, DMEM (normal nutritional condition) and NDM (nutrient starvation)
# Experimental: (§2) [Test 2] (Cytotoxic Evaluation Using the Cultured Cell)
# (§3) The pancreas cancer cell line, CAPAN-1, PANC-1 and PSN-1 were plated to the 96 well plate, and they were pre-cultured in DMEM culture media in 37° C., 5% CO2 and 95% Air under normal nutritional condition for 24 hours. After washing these cells with PBS, the extracts which were extracted by the different methods in DMEM culture media (ending D in the graph) which is normal nutritional condition and in NDM culture media (ending I in the graph) which are a nutrient starvation condition (Example 2 and comparative example 2 in the graph) were added to each well including constant concentration of arctigenin, and incubated for 24 hours. The cells were washed in PBS again, 100 μL of DMEM culture media including 10% WST-8 was added to be reacted for two hours and measured the absorbance of 450 nm by the microplate reader, and viability of these cells were evaluated.
# PANC-1 = test: Cytotoxic evaluation using the cultured cell (WST-8 viability), PANC-1; format: cell-based; details: PANC-1, DMEM (normal nutritional condition) and NDM (nutrient starvation)
# Experimental: as §2, §3
# PSN-1 = test: Cytotoxic evaluation using the cultured cell (WST-8 viability), PSN-1; format: cell-based, human; details: PSN-1, DMEM (normal nutritional condition) and NDM (nutrient starvation)
# Experimental: as §2, §3
smiles,measurement,setting,value
COc1cc(C[C@H]2C(=O)OC[C@@H]2Cc2ccc(OC)c(OC)c2)ccc1O [arctigenin],antitumor effect (size of the tumor mass),CAPAN-1 Xenografts,antitumor effect was also obtained
same,antitumor effect (size of the tumor mass),PSN-1 Xenografts,antitumor effect was also obtained
same,effect in screen for release of viability of tumor cells in the undernutrition condition,[1],effective
COc1ccc(C[C@H]2COC(=O)[C@@H]2Cc2ccc(O[C@@H]3O[C@H](CO)[C@@H](O)[C@H](O)[C@H]3O)c(OC)c2)cc1OC [arctiin],anticancer activity,CAPAN-1,in neither condition
same,anticancer activity,PANC-1,in neither condition
same,anticancer activity,PSN-1,in neither condition
